In US20260231994A1, “TASTE-ENHANCING COMPOSITION, METHOD FOR PRODUCING SAME, FOOD PRODUCT, AND METHOD FOR ENHANCING TASTE OF FOOD PRODUCT” (HOUSE FOODS GROUP INC., priority 2023, published 2026):

Columns and labels:
Assay type in all cases: in vivo
[1] = Experiment 1 sensory evaluation of “boosting of flavor” (cyclic dipeptides, coriander)
Protocol: Flour roux was prepared by putting 20 g of flour and 30 g of beef tallow in a pan, then heating with stirring at 120° C. To this flour roux were added 10 g of sodium chloride, 10 g of sugar, 10 g of cornstarch, 5 g of curry powder and 15 g of other seasoning ingredients (vegetable and fruit extracts, yeast extract and seafood extract), and after heat-treatment to 105° C., the mixture was cooled and solidified, to form a block of common curry roux.
The sodium chloride equivalent per 100 g of this curry roux was 10.6 g.
Reduced-sodium curry roux was prepared according to the same procedure, except that the amount of sodium chloride was reduced to 7 g from the amount in the common curry roux in (1).
The sodium chloride equivalent per 100 g of this reduced-sodium curry roux was 7.7 g.
Out of the cyclic dipeptides included in the heat-treated coriander prepared in 1.1. described above, which were confirmed to be increased in 1.2. above, an aqueous solution of the respective 14 cyclic dipeptides shown in the table described below was prepared. The concentration of the cyclic dipeptide in each aqueous solution was set to be equal to its concentration in the heat-treated coriander prepared in 1.1. described above, which was estimated from the ratio of the peak area of the cyclic dipeptide to the peak area of the internal standard (47 μg/g L-lysine-^13C6 monohydrochloride) confirmed in 1.2. described above.
Two dispersions of 44 g of the reduced-sodium curry roux in (2) dispersed in 300 g of hot water were prepared.
To one of them was added the heat-treated coriander or the powdered unheated coriander prepared in 1.1. described above, or the cyclic dipeptide aqueous solution (corresponding to the heat-treated coriander) prepared in (3) above, so that the final concentration was 0.2% (w/w), and a sensory evaluation was carried out.
Forty-four grams of the common curry roux in (1) was dispersed in 300 g of hot water.
The dispersion of reduced-sodium curry roux dispersed in hot water and the dispersion of common curry roux dispersed in hot water were used as comparative controls, and the strength of the flavor was evaluated by four evaluators on the basis of the following evaluation criteria from the viewpoint of “boosting of flavor.” The term “boosting of flavor” in this experiment is an effect concerted by the combination of sodium chloride and other foodstuffs in curry roux, and is an aspect of “saltiness.” Thus, the “flavor” in this experiment can be also expressed as “saltiness.”
The average of the evaluated scores was defined as “F” when it was 1.0 or lower, “C” when it was 1.1 or higher and 1.9 or lower, “B” when it was 2.0 or higher and 2.5 or lower, “A” when it was 2.6 or higher and 2.9 or lower, and “AA” when it was 3.0 or higher.

[2] = Experiment 6 sensory evaluation of cyclic dipeptides, “top sharp saltiness”
How it was run: (§1)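 Reduced-sodium curry roux (44 g in 300 g hot water) was spiked with cyclic dipeptide solutions matching heat-treated coriander or paprika levels, at 0.5% or 1.0% (w/w) final. Three evaluators scored each sample against unspiked reduced-sodium and common roux. Mean scores were graded F to AA.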

[3] = Experiment 6 sensory evaluation of cyclic dipeptides, “middle fullness (enhanced thickness)”
How it was run: as §1

[4] = Experiment 6 sensory evaluation of cyclic dipeptides, “boosting of last flavor (aftertaste)”
How it was run: as §1

[5] = Additive amount paprika 0.5%, reduced-sodium curry roux
[6] = heat-treated paprika equivalent aqueous solution of cyclic dipeptide, final 1.0% (w/w) in reduced-sodium curry roux dispersion
[7] = heat-treated paprika equivalent aqueous solution of cyclic dipeptide, final 1.0% (w/w) in reduced-sodium curry roux dispersion, 3 evaluators

cyclic (Thr-Pro) [Coriander ID 14]
“boosting of flavor” in words ([1]; added to reduced-sodium curry roux dispersion, compared with no addition, unheated coriander or common curry roux): comparable flavor to that of the dispersion of common curry roux | “boosting of flavor” Average ([1]; cyclic dipeptide aqueous solution (concentration as in heat-treated coriander) at final 0.2% (w/w) in reduced-sodium curry roux dispersion, score 1-5): 3.3 points | “boosting of flavor” Evaluation ([1]; cyclic dipeptide aqueous solution at final 0.2% (w/w) in reduced-sodium curry roux dispersion, class of average score): AA (“AA” when it was 3.0 or higher) | Top sharp saltiness Average ([2]; Additive amount paprika 0.5% (heat-treated paprika equivalent aqueous solution, final 0.5% (w/w)), reduced-sodium curry roux): 2.2 points | Top sharp saltiness Evaluation [2, 5]: B (“B” when it was 2.0 or higher and 2.5 or lower) | Top sharp saltiness Evaluation [2, 6]: B (“B” when it was 2.0 or higher and 2.5 or lower) | Top sharp saltiness Average [2, 7]: 2.0 points | Middle fullness Average [3, 5]: 2.0 points | Middle fullness Evaluation [3, 5]: B (“B” when it was 2.0 or higher and 2.5 or lower) | Middle fullness Evaluation [3, 6]: B (“B” when it was 2.0 or higher and 2.5 or lower) | Middle fullness Average [3, 7]: 2.5 points | Bosting of last flavor Average [4, 5]: 2.2 points | Bosting of last flavor Evaluation [4, 5]: B (“B” when it was 2.0 or higher and 2.5 or lower) | Bosting of last flavor Evaluation [4, 6]: B (“B” when it was 2.0 or higher and 2.5 or lower) | Bosting of last flavor Average [4, 7]: 2.5 points
